The text below walks through data of ChEMBL document CHEMBL3399939, “Synthetic studies of five-membered heteroaromatic derivatives as potassium-competitive acid blockers (P-CABs)” (Bioorg Med Chem Lett, 2015).

The species entered for one data set is Sus scrofa. The data set is described as follows: Inhibition of K+-stimulated H(+)/K(+) ATPase in porcine gastric mucosal microsomal fraction assessed as reduction in inorganic phosphate release at 10 uM incubated at 37 degC for 30 mins in presence of ATP by malachine green dye based colorimetry. Type of data set: microsomes. As to conditions: Gastric mucosa.

Data set [1] is described as follows: Inhibition of K+-stimulated H(+)/K(+) ATPase in porcine gastric mucosal microsomal fraction assessed as reduction in inorganic phosphate release incubated at 37 degC for 30 mins in presence of ATP by malachine green dye based colorimetry. Type of data set: microsomes, Sus scrofa, Gastric mucosa.
Data set [2] in a line: Lipophilicity, log D of the compound. The class given is physicochemical. Conditions: octanol/water.

Regarding `CNCc1nc(S(=O)(=O)c2ccccc2)c(-c2ccccc2)s1`, in the data set listed under Sus scrofa, the inhibition was determined as 2%.

In the case of `CNCc1cc(-c2ccccc2)c(S(=O)(=O)c2ccc(C)cc2)o1`, the inhibition in the data set listed under Sus scrofa came out at 33.2%. In the case of `CNCc1cc(S(=O)(=O)c2ccccc2)c(-c2ccccc2)o1`, the concentration for half-maximal inhibition (IC50) in data set [1] was found to be 1000 nM. The logD in data set [2] is 1.8.

As for `CNCc1cc(-c2ccccc2)c(S(=O)(=O)c2ccccc2)s1`, in data set [1], the half-inhibitory concentration (IC50) was 52 nM. This compound also had a logD in data set [2] of 2.1.

In the case of `CNCc1cc(S(=O)(=O)c2ccccc2)n(-c2ccccc2)c1`, the IC50 in data set [1] stood at 130 nM. Also, the logD in data set [2] was 0.4.

Regarding `CCNc1nc(-c2ccccc2)c(S(=O)(=O)c2ccccc2)s1`, in the data set listed under Sus scrofa, the inhibition came to 6.9%.

As to `CNCc1cc(S(=O)(=O)c2ccccc2)c(-c2ccccc2)s1`, the half-maximal inhibitory concentration (IC50) in data set [1] stood at 150 nM. In data set [2], this compound displayed a logD of 1.9. As to `CNCc1cc(S(=O)(=O)c2ccccc2)n(-c2ccccc2)n1`, in data set [1], the IC50 amounted to 68 nM. In data set [2], the logD was determined as 1.1.

Regarding `CNCc1cn(S(=O)(=O)c2ccc(C)cc2)c(-c2ccccc2)n1`, in data set [1], the half-inhibitory concentration (IC50) amounted to 99 nM. The logD in data set [2] worked out at 0. In the case of `CNCc1cc(S(=O)(=O)c2ccccc2)c(-c2ccccc2)[nH]1`, the inhibition in the data set listed under Sus scrofa was 19.8%. `CNc1nc(-c2ccccc2)c(S(=O)(=O)c2ccccc2)s1`: the inhibition in the data set filed under Sus scrofa came to 3.6%. As for `CNCc1nc(-c2ccccc2)c(S(=O)(=O)c2ccccc2)s1`, the concentration for half-maximal inhibition (IC50) in data set [1] is 170 nM. The logD in data set [2] was 2.1.

As a reminder, the inhibition is the percentage by which the read-out fell short of the control. Broadly, the IC50 is the concentration that gives 50% inhibition. The logD is lipophilicity at a set pH, counting ionised and neutral species. Low values mean a more hydrophilic compound, high ones a more lipophilic compound.
